Results as given in US4186136A, “Novel benzothienyl amino (propyl and butyl) ketones, a method of preparation thereof and their application to therapeutics” (priority 1975, dated 1980).
In brackets after ≈: the same amount, converted by molar mass. Several values for one entry are separate records, joined by “and”; a condition that tells them apart may be missing. Identical values can stand only once. Counter-ions that a name gives are not always drawn. Like-named read-outs stand apart in the source and are kept apart here.

Experiments:
[1] = system: phenylparaquinone (P.P.Q.) painful syndrome in a mouse; assay: Analgesic and anti-inflammatory activity, phenylparaquinone (P.P.Q.) painful syndrome; type: in vivo; details: for Analgesic and anti-inflammatory activity, percentage activity a(X): 50 mg/kg digestively, crises between 10 and 15 minutes; for a(X) / a(R), analgesic and anti-inflammatory activity: X 50 mg/kg, R (Galfenine) 25 mg/kg
Procedure: The intraperitoneal injection of phenylparaquinone (P.P.Q.) in a mouse causes the appearance of a painful syndrome appearing within 5 minutes of the injection and disappearing after about 30 minutes (SIEGMUND E. A., CADMUS A., LU G., J. Pharmacol. Exp. Therap. 1957, 119, 453). This painful syndrome manifests itself in the animal by a series of characteristic crises, more or less close together and fleeting, during which we can note a twisting or stretching of the body, a hollowing of the sides and a stretching of the hind legs.
It is therefore possible to note the number of crises in a given interval of time.
The preventive administration of analgesic or anti-inflammatory substances prevents the appearance of crises or reduces the frequency thereof.
The reference substance (R) used in the tests was the ester of N-(7-chloro-4 quinolyl) anthranilic acid and 2,3-dihydroxy n.propanol (known under the trademark Galfenine).
It was administered orally with a dose of 25 mg/kg.
The compounds of formula I (X) were administered digestively with a dose of 50 mg/kg.
The interval of time (t) which was chosen to evaluate the analgesic activity was between 10 and 15 minutes which is the period of maximum frequency of the crises. This activity was expressed in the following way:
n: number of crises observed in the control mice;
n': number of crises observed in mice previously treated with the reference substance (R);
n": number of crises observed in mice having received the substance (X).
The percentage activity of R is equal to [formula]
The percentage activity of X is equal to [formula]
The activity of X in relation to that of R is estimated by the ratio [formula]
For example: a compound X for which [formula] is 0.5 has an activity equal to half that of the reference product.

[2] = system: human blood-plaques (aggregation with adrenaline); assay: Inhibition of blood-plaque aggregation induced by adrenaline; type: cell-based; details: for inhibition at 25 µg/mL: Homo sapiens, read-out: Inhibitory activity of the blood-plaque aggregation, ADRENALINE, a (X); for Ratio of a (X) to a (R), ADRENALINE (head drawn): X 2.5×10^-5 g/ml, R 5×10^-4 g/ml
Excerpt: (§1) The blood plaques used for these studies were human blood-plaques introduced into the test in the form of blood-plaque rich plasmas (B.P.R.P.).
(§2) These latter were obtained as water-repellent material by slow centrifugation from human blood samples.
(§3) The study of blood-plaque aggregation was made by means of an aggregate-meter with continuous agitation and graphic recording according to the conventional method. (PROST R. S., SOUVERAIN C. H., DOUMENC J., Etude de l'agregation plaquettaire a l'aide de l'agregametre de MUSTARD-Coagulation, 1971, 4, 2, 145-151).
(§4) The agents employed for inducing aggregation were diphosphoric adenosine acid (D.P.A.), 1-(3',4'-di-hydroxyphenyl)-2-methylamino ethanol (adrenaline) and collagene. All these reactants were prepared from mother solutions diluted in a Michaelis' buffer. Their concentration in the test may vary according to the affinity of the blood-plaques.
(§5) An optimum concentration is thus sought by successive tests on the same B.P.R.P.
(§6) The inhibitory activity on the aggregation was evaluated by addition of the product under study to the B.P.R.P. before introduction of the aggregating agent.
(§7) The concentrations of compounds of formula I (X) in the B.P.R.P. are: C (X)=2.5×10^-5 g/ml for aggregation with D.P.A. and adrenaline, and C (X)=2×10^-5 g/ml for collagene.
(§8) The reference product (R) is 2,6-bis (diethanolamino)-4,8-dipiperidinopyrimido[5,4-d]pyramidine (known under the trademark "Dipyridamole") used in the concentration C (R)=5×10^-4 g/ml for aggregation with D.P.A. and adrenaline and C (R)=2×10^-4 g/ml for aggregation with collagene.
(§9) The following table IV indicates the activity of some compounds of formula I: a (X) the activity of the reference product: a (R) and the different values of the ratio: [formula]

rat's isolated duodenum = assay: Spasmolytic activity on isolated duodenum contracted by barium chloride (Magnus); details: for IC50: Rattus norvegicus, barium chloride contraction, Tyrode, 38° C., read-out: Spasmolytic activity ED 50 (X); for ED 50 (R) / ED 50 (X): relative to papaverine hydrochloride
Procedure: The spasmolytic activity was studied on a rat's isolated duodenum maintained in a survival medium of an aerated Tyrode solution heated to 38° C. according to the technique of Magnus (Magnus R.-Archivs ges. Physiol., 1905, 180, 1-71).
The contracting agent used was barium chloride, the reference antogonist agent being papaverine hydrochloride (R). The average activity of the compounds of formula I (X) in comparison with that of the reference agent was expressed by calculating the ratio of the 50 efficient doses (ED 50) determined graphically on logarithmic paper: [formula]
For example: a substance having a relative activity expressed by the FIG. 2 presents an activity equal to twice that of papaverine hydrochloride.

[3] = system: isolated heart of a gumea-pig; assay: Vaso-dilatatory activity, coronary flow of isolated perfused heart; details: for activation at 10 µg/mL: Locke, 37° C., read-out: Percentage flow increase P (X); for P (X) / P (R): relative to Dipyridamole, both 1×10^-5 g/ml
Procedure: The coronary flow is recorded, by means of an electronic device fitted with a Fleish totaliser, before and after addition of the substance X under study (concentration: 1×10^-5 g/ml), the reference product (R) being 2,6-bis (diethanolamino) 4,8-dipiperidinopyrimido[5,4-d]pyrimidine (known under the trademark "Dipyridamole") used at a concentration of 1×10^-5 g/ml.
The percentage flow increase P was calculated at the climax of the activity of X or R.

[4] = system: human blood-plaques (aggregation with D.P.A.); assay: Inhibition of blood-plaque aggregation induced by D.P.A.; type: cell-based; details: for Inhibitory activity of the blood-plaque aggregation, D.P.A., a (X) / inhibition at 25 µg/mL: C (X)=2.5×10^-5 g/ml; for Ratio of a (X) to a (R), D.P.A. (head drawn): X 2.5×10^-5 g/ml, R 5×10^-4 g/ml; for inhibition at 25 µg/mL: Homo sapiens, read-out: Inhibitory activity of the blood-plaque aggregation, D.P.A., a (X)
Excerpt: as §1, §2, §3, §4, §5, §6, §7, §8, §9

[5] = Acute toxicity, oral, mouse (LD 50, Miller and Tainter); type: in vivo; details: in vivo, death rate checked for seven days, read-out: 50% lethal dose (LD 50) (converted)
Procedure: (§10) The acute toxicity of the compounds of formula (I) were evaluated orally (esophagean probe) on a mouse deprived of food 18 hours before the beginning of the test. The products were placed in suspension in a solution of dilute carboxymethyl cellulose. Calculation of the 50 lethal dose (LD 50) was effected according to the method of Miller and Tainter (Miller L. C., Tainter M. L., Proc. Soc. Exptl. Biol. Med. 1944, 57, 261-264).
(§11) The death rate was checked for seven days following the treatment.
(§12) Table III gives the 50% lethal doses (LD 50) in milligrammes per kilogramme body weight.

[6] = system: human blood-plaques (aggregation with collagene); assay: Inhibition of blood-plaque aggregation induced by collagene; type: cell-based; details: for Inhibitory activity of the blood-plaque aggregation, COLLAGENE, a (X) / inhibition at 20 µg/mL: C (X)=2×10^-5 g/ml; for Ratio of a (X) to a (R), COLLAGENE (head drawn): X 2×10^-5 g/ml, R 2×10^-4 g/ml; for inhibition at 20 µg/mL: Homo sapiens, read-out: Inhibitory activity of the blood-plaque aggregation, COLLAGENE, a (X)
Excerpt: as §1, §2, §3, §4, §5, §6, §7, §8, §9

human blood-plaques = assay: Blood-plaque aggregation inhibition (all inducers, overall statement); type: cell-based; details: compared with reference product, taking the ratio into account
Excerpt: as §1, §2, §3, §4, §5, §6
The concentrations of compounds of formula I (X) in the B.P.R.P. are: C (X)=2.5×10^-5 g/ml for aggregation with D.P.A. and adrenaline, and C (X)=2×10^-5 g/ml for collagene. […]

mouse = assay: Acute toxicity, oral, mouse (LD 50, Miller and Tainter); type: in vivo; details: death rate checked for seven days, 10080 min
Procedure: as §10, §11, §12

[7] = 1×10^-5 g/ml, coronary flow at climax of activity
[8] = reference product, C (R)=5×10^-4 g/ml

| Structure (SMILES) | Analgesic and anti-inflammatory activity, percentage activity a(X) [1] [%] | a(X) / a(R), analgesic and anti-inflammatory activity [1] | inhibition at 25 µg/mL ([2]; C (X)=2.5×10^-5 g/ml) [%] | Ratio of a (X) to a (R), ADRENALINE (head drawn) [2] | IC50 (rat's isolated duodenum) [mg/L] | ED 50 (R) / ED 50 (X) (rat's isolated duodenum) | activation at 10 µg/mL [3, 7] [%] | P (X) / P (R) [3] | LD50 at 168 h ([5]; po) [mg/kg] | Ratio of a (X) to a (R), COLLAGENE (head drawn) [6] | inhibition at 20 µg/mL [6] [%] | further results |
| --- | --- | --- | --- | --- | --- | --- | --- | --- | --- | --- | --- | --- |
| O=C(CCCN1CCCCCC1)c1csc2ccccc12 [Compound 15] | 51 | 1.13 | 82 | 9.5×10^-1 | 3 (≈ 9.95 µM) | 1.6 | 172 | 2.42 | 950 |  |  | Inhibitory activity of the blood-plaque aggregation, D.P.A., a (X) [4]: 17% |
| OCCN(CCO)c1nc(N2CCCCC2)c2nc(N(CCO)CCO)nc(N3CCCCC3)c2n1 [Dipyridamole, 2,6-bis (diethanolamino)-4,8-dipiperidinopyrimido[5,4-d]pyramidine, reference compound] |  |  |  |  |  |  |  |  |  |  |  | Inhibitory activity of the blood-plaque aggregation, ADRENALINE, a (R) [2, 8]: 91% and 78% and 86% and 88% and 77%; Percentage flow increase P (R) ([3]; reference product, 1×10^-5 g/ml, coronary flow at climax of activity): 43% and 53% and 71%; Inhibitory activity of the blood-plaque aggregation, D.P.A., a (R) [4, 8]: 87% and 53% and 79% and 55% and 85%; LD50 at 168 h [5]: 2150 mg/kg; Inhibitory activity of the blood-plaque aggregation, COLLAGENE, a (R) ([6]; reference product, C (R)=2×10^-4 g/ml): 36% |
| O=C(CCCN1CCOCC1)c1csc2ccccc12 [Compound 17] | 55 | 1.2 |  |  | 2.15 (≈ 7.43 µM) | 3.4 |  |  | 1000 |  |  | Inhibitory activity on the blood-plaque aggregation (in words) (human blood-plaques): substantially superior |
| CCN(CC)CCCC(=O)c1csc2ccccc12 [Compound 10] |  |  |  |  |  | 1.05 | 60 | 1.4 |  |  |  | 50% lethal dose (LD 50) (mouse): 1 100 mg/kg/p.o. |
| O=C(CCCN1CCOCC1)c1cc2ccccc2s1 [Compound 1, 1-(benzothien-2'-yl)-4-N-morpholino butanone] |  |  | 9 | 1×10^-1 |  |  | 28 | 6.5 × 10^-1 | 1200 | 3.3×10^-1 |  | Inhibitory activity of the blood-plaque aggregation, COLLAGENE, a (X) [6]: 12% |
| O=C(CCCN1CCCCCC1)c1csc2ccccc12 [Compound 16] | 44 | 5.9 × 10^-1 |  |  |  | 2.7 |  |  |  | 2.5 | 92 | Inhibitory activity of the blood-plaque aggregation, D.P.A., a (X) [4]: 47%; Ratio of a (X) to a (R), D.P.A. (head drawn) [4]: 5.5×10^-1; 50% lethal dose (LD 50) (mouse): 1 200 mg/kg/p.o. |
| CCCN(CCC)CCCC(=O)c1csc2ccccc12 [Compound 11] | 48 | 6.5 × 10^-1 | 51 | 5.8×10^-1 | 1.05 (≈ 3.46 µM) | 6.2 | 41 | 7.75 × 10^-1 | 1100 | 3.3×10^-1 | 12 | Ratio of a (X) to a (R), D.P.A. (head drawn) [4]: 1.8×10^-1; inhibition at 25 µg/mL [4]: 10% |
| O=C(CCCN1CCOCC1)c1cc2ccccc2s1 [Compound 2, 1-(benzothien-2'-yl)-4-N-morpholino butanone hydrochloride] |  |  |  |  |  |  |  |  |  |  |  | Analgesic and anti-inflammatory activity, percentage activity a(X) ([1]; hydrochloride): 38%; a(X) / a(R), analgesic and anti-inflammatory activity ([1]; hydrochloride): 5 × 10^-1; Inhibitory activity of the blood-plaque aggregation, ADRENALINE, a (X) ([2]; C (X)=2.5×10^-5 g/ml, hydrochloride): 15%; Ratio of a (X) to a (R), ADRENALINE (head drawn) ([2]; hydrochloride): 1.65×10^-1; 50% lethal dose (LD 50) (mouse; hydrochloride): 1 500 mg/kg/p.o.; Inhibitory activity of the blood-plaque aggregation, COLLAGENE, a (X) ([6]; hydrochloride): 12%; Ratio of a (X) to a (R), COLLAGENE (head drawn) ([6]; hydrochloride): 3.3×10^-1 |
| CC(C)N(CCCC(=O)c1csc2ccccc12)C(C)C [Compound 12] | 68 | 1.5 | 80 | 9.1×10^-1 | 1.35 (≈ 4.45 µM) | 4.8 | 33 | 6.25 × 10^-1 | 500 | 2.3×10^-1 | 12 | inhibition at 25 µg/mL [4]: 29% |
